Experimental findings from publication PMC7327804 (Data in Brief, 2020) are described below.

For assay [1], the target named is T1, HA-hNTS2 receptor (Homo sapiens, UniProt O95665).
T1 construct: expressed in transfected cells; host or cells: CHO-K1, transient transfection
The assay can be described thus: Cell-surface ELISA for internalization of HA-hNTS2 receptor. Format: cell-based. As to conditions: CHO-K1 cells transfected with HA-hNTS2, 1 µM ligand, 60 min at 37 °C in serum-free media, mean ± SEM of at least three independent determinations. In general terms: An ELISA detects its analyte on a solid surface through an enzyme-linked reagent.
Procedure: Receptor internalization using CHO-K1 cells transiently transfected with either HA-NTS1 or HA-NTS2 was carried out as previously described in details [9], [10], [11]. […] Cells were then washed with PBS and remaining ELISA steps form the detailed protocol were followed and unchanged. Absorbance was read at 450 nm and data were normalized according to the protocol.

In assay [2] the test system is NTS2 (p42/p44 MAPK phosphorylation). The assay can be described thus: Western blot of p42/p44 (ERK1/2) phosphorylation in 1321N1 cells stably expressing NTS2. Format: cell-based, human. Conditions: 1321N1 cells stably expressing NTS2, serum-starved, 1 µM ligand, various time points. How it is done:
(§1) Cells stably expressing NTS1 or NTS2 were grown for 48 h in complete culture media before being incubated for 16 h in serum-free media. Cells were then stimulated with either NT or JMV2009. Aspiration of media and addition of ice-cold PBS blocked any further protein phosphorylation. Cells were then lysed in RIPA containing proteases and phosphatases inhibitors before being centrifuged at 8000 g for 15 min.
(§2) Separation, transfer and blotting steps were performed as described previously using anti-phosphorylated ERK1/2 (Cell Signaling, cat# 4376S, lot 18, Danvers, MA; 1:1000, in TBS-T, 1% BSA) or anti-ERK1/2 (Cell Signaling, cat# 4695S, lot 28; 1:1000, in TBS-T, 1% BSA) as primary antibodies and HRP-conjugated anti-rabbit IgG from goat (Cell Signaling, cat# 7074S, lot 28; 1:5000, in TBS-T, 1% BSA) as secondary antibody for detection.
On the technique in general: A western blot detects proteins with antibodies after separation by electrophoresis.

Assay [3] deals with NTS1 (p42/p44 MAPK phosphorylation). The assay can be described thus: Western blot of p42/p44 (ERK1/2) phosphorylation in CHO-K1 cells stably expressing NTS1. Format: cell-based, human. As to conditions: CHO-K1 cells stably expressing NTS1, serum-starved, 1 µM ligand, various time points. How it is done:
as §1, §2

T1 sequence (O95665 whole entry): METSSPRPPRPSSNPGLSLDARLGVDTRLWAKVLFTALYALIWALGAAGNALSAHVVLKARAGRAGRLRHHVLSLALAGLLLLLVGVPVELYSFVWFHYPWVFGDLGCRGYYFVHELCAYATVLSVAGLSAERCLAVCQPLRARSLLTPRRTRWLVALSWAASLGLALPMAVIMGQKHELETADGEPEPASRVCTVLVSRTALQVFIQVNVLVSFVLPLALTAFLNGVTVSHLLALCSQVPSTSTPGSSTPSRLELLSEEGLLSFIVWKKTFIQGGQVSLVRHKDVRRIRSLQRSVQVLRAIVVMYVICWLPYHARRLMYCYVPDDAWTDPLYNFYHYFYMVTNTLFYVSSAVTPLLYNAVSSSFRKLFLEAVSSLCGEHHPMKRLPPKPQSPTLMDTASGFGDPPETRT

In turn, `CC[C@H](C)[C@H](NC(=O)[C@H](Cc1ccc(O)cc1)NC(=O)[C@@H]1C[Si](C)(C)CN1C(=O)[C@H](CCCCN)NC(=O)[C@@H](N)CCCCN)C(=O)N[C@@H](CC(C)C)C(=O)O` [JMV2009] returned an NTS2 internalization in assay [1] of 15.1 ± 9.8%. In addition, the “phosphorylation of p42/p44 proteins (ERK 1/2), NTS2 cells” value in assay [2] is “time-dependent phosphorylation”. In addition, the “phosphorylation of p42/p44 proteins (ERK 1/2), NTS1 cells” value in assay [3] is reported as “time-dependent phosphorylation”.
